Assays:
[1] = test system: proHB-EGF; test: Flow cytometry of cell surface proHB-EGF in non-transfected COS-7 cells; format: cell-based; conditions: within 10 minutes, FIG. 4c
[2] = test system: EGFR; test: EGFR tyrosine phosphorylation in PC-3 prostate carcinoma cells; format: cell-based, human; conditions: PC-3 cells starved for 36 hours; 3 minutes stimulation; FIG. 4f
[3] = test system: SHC; test: SHC tyrosine phosphorylation in Rat-1/EP-R cells; format: cell-based; conditions: tyrphostin pretreatment (AG1478 250 nM, AG1295 1 μM), FIG. 1e
[4] = test system: human EGFR (HERc); test: Intercellular transactivation: HERc tyrosine phosphorylation in Rat-1/M1R + Rat-1/HERc co-culture; format: cell-based; conditions: carbachol 1 mM; for effect on EGFR (HERc) tyrosine phosphorylation in response to M1R agonist carbachol: confluent co-cultures of Rat-1/M1R and Rat-1/HERc cells, preincubation, FIG. 2b, 2c
[5] = test system: proHB-EGF; format: cell-based

EGF: epidermal growth factor, EGFR ligand used as control stimulus (NSDSECPLSHDGYCLHDGVCMYIEALDKYACNCVVGYIGERCQYRDLKWWELR; UniProt P01133 971-1023, looked up)
content of cell surface proHB-EGF after addition of agonist [1]: no effect
induction of tyrosine phosphorylation of the EGFR by agonist [2]: induce tyrosine phosphorylation

COc1cc2ncnc(Nc3cccc(Cl)c3)c2cc1OC [AG1478]
effect on SHC tyrosine phosphorylation following thrombin stimulation [3]: completely blocked

[O-][Cl+2]([O-])O [chlorate]
effect on EGFR (HERc) tyrosine phosphorylation in response to M1R agonist carbachol [4]: completely inhibited

CCCCCCCCCCCCCC(=O)O[C@@H]1[C@@H](C)[C@@]2(O)[C@@H](C=C(CO)C[C@]3(O)C(=O)C(C)=C[C@@H]23)[C@@H]2C(C)(C)[C@]12OC(C)=O [TPA, tetradecanoyl-phorbol-13-acetate]
content of cell surface proHB-EGF after addition of agonist [1]: reduced
induction of tyrosine phosphorylation of the EGFR by agonist [2]: induce tyrosine phosphorylation

C[N+](C)(C)CCOC(N)=O [carbachol]
induction of tyrosine phosphorylation of HERc by agonist ([4]; Rat-1/M1R + Rat-1/HERc co-culture, FIG. 2a): rapidly induced tyrosine phosphorylation
proteolytic processing of membrane-anchored proHB-EGF upon agonist stimulation [5]: rapid breakdown

heparitinase
effect on EGFR (HERc) tyrosine phosphorylation in response to M1R agonist carbachol [4]: completely inhibited

lysophosphatidic acid [LPA]
content of cell surface proHB-EGF after addition of agonist [1]: reduced

Cc1cc2ncc(-c3ccccc3)nc2cc1C [AG1295]
effect on SHC tyrosine phosphorylation following thrombin stimulation [3]: remained unaffected
